Experiments:
Type in all cases: binding
Conditions in all cases: ✓ / X, key not given
2β3α = test: Epitope mapping, PDGFRβ/α chimera
Experimental: (§1) Various chimeric constructs of PDGFRβ and PDGFRα were first made by domain swapping, starting from N-terminus to C-terminus with PDGFRβ domain(s) replacing PDGFRα domain(s). The PDGFRβ/α chimera were tested for the ability of 2C5 binding. Shorter versions of PDGFRβ, including D1D2, D2D3 and D1D2D3, were then made to confirm the 2C5 binding domains on PDGFRβ.

h5α = h5α (Homo sapiens, UniProt P16234); test: Epitope mapping
Experimental: as §1

β1-3 = test: Epitope mapping, shorter version of PDGFRβ (D1D2D3)
Experimental: as §1, with “2C5 binds to domain 1 (D1) and domain 2 (D2) of PDGFRβ. Various” for “Various”

3β2α = test: Epitope mapping, PDGFRβ/α chimera
Experimental: as §1, with “2C5 binds to domain 1 (D1) and domain 2 (D2) of PDGFRβ. Various” for “Various”

4β1α = test: Epitope mapping, PDGFRβ/α chimera
Experimental: as §1, with “2C5 binds to domain 1 (D1) and domain 2 (D2) of PDGFRβ. Various” for “Various”

m5β = molecular target: T1, m5β (Mus musculus, UniProt P05622); test: Epitope mapping
T1 sequence (P05622 32-531 limits assumed): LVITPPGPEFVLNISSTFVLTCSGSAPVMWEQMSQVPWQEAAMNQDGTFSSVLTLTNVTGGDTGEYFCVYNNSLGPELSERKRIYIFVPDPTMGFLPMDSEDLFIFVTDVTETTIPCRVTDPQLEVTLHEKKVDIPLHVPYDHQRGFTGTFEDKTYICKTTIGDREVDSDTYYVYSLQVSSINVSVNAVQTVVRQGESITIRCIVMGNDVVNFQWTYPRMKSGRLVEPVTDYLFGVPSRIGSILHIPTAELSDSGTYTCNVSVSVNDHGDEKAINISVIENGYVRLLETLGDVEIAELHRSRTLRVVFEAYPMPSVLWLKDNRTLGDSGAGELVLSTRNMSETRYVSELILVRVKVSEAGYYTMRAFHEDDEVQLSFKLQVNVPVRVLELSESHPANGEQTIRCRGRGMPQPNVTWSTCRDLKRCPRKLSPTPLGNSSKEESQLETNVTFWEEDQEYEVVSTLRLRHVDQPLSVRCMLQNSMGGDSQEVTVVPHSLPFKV
Experimental: as §1, with “2C5 binds to domain 1 (D1) and domain 2 (D2) of PDGFRβ. Various” for “Various”

Chain of h5α (P16234 24-528 limits assumed): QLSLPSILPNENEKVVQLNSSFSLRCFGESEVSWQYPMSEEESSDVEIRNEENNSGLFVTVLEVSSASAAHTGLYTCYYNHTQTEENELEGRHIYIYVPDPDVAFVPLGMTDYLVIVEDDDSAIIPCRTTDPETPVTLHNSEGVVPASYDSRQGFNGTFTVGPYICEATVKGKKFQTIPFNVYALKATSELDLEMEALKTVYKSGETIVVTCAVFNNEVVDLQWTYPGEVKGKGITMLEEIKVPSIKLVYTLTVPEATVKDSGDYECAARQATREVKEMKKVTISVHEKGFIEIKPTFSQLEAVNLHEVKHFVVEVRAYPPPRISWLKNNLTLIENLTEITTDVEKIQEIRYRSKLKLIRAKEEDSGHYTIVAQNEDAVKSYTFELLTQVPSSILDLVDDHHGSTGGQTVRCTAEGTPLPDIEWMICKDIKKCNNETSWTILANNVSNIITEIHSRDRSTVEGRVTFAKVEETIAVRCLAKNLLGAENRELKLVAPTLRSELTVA

PDGF-BB: platelet-derived growth factor dimer, ligand of PDGFRβ and PDGFRα [reference compound]
✓: binding to 2β3α (2β3α) | binding to h5α (h5α) | binding to β1-3 (β1-3) | binding to 3β2α (3β2α) | binding to 4β1α (4β1α) | binding to m5β (m5β)
